Measurements published in patent US4544512A, “Tridecyloxy- or tetradecyloxy-propane derivatives” (Takeda Chemical Industries, Ltd., priority 1980, dated 1985).
Converted amounts (≈) assume the structure as drawn. Read-outs that look alike come from different tables or passages of the source.

Experiments:
Type in all cases: cell-based
Gibberella fujikuroi = test: Antifungal activity, serial dilution method (MIC); conditions: Fusarium fujikuroi, read-out: MIC Gibberella fujikuroi (rice Bakanae-disease)
Botrytis cinerea = test: Antifungal activity, serial dilution method (MIC); conditions: read-out: MIC Botrytis cinerea (gray mold)
Leptosphaeria salvinii = test: Antifungal activity, serial dilution method (MIC); conditions: Nakataea oryzae, read-out: MIC Leptosphaeria salvinii (rice stem rot)
[1] = system: Colletotrichum lagenarium; test: Antifungal activity, serial dilution method (MIC); conditions: Colletotrichum orbiculare, read-out: MIC Colletotrichum lagenarium (cucumber anthracnose)
Cochliobolus miyabeanus = test: Antifungal activity, serial dilution method (MIC); conditions: Bipolaris oryzae, read-out: MIC Cochliobolus miyabeanus (rice Helminthosporium leaf spot)
Alternaria solani = test: Antifungal activity, serial dilution method (MIC); conditions: 1% glucose-bouillon agar medium, read-out: MIC Alternaria solani (potato early blight)
Pyricularia oryzae = test: microbe, parasite or virus in culture; conditions: read-out: MIC Pyricularia oryzae (rice blast)
[2] = system: Trichophyton mentagrophytes IFO (DT-66); test: Antitrichophyton activity, serial dilution method (MIC); conditions: Sabouraud's agar medium
Experimental: (§1) Referring to the antitrichophyton activity shown in Table 7, MIC values of tested compounds were determined by the serial dilution method using Sabouraud's agar medium.

[3] = system: Trichophyton rubrum IFO 5467 (DT-63); test: as above; conditions: IFO5467, Sabouraud's agar medium
Experimental: as §1

[4] = system: mouse myeloid leukemia M1 cells; test: Induced differentiation of mouse myeloid leukemia M1 cells; conditions: at optimal dose: C00019 1 μg/ml, drawing 20 2 μg/ml; for Phagocytic cells: None 2.0 %; for Morphological change: None 2.1 %; for Lysozyme activity: None 2.2
Experimental: By employing soft-agar medium having similar components to those in Test Example 1, incubation of myeloid leukemia (M1) cells harvested from mice was conducted in the presence of the test compound in its optimal concentration. Observation on various biological and biochemical properties caused by induced differentiation was conducted. In Table 2 are given the results obtained by determination of the degree of the induced differentiation employing, as the indexes, among those properties, morphological changes (matured granulocytes, matured macrophages, others caused by changes in appearance of cells at the stage of differentiation),phagocytic activity (plastic small pieces.phagocytosis) and lysozyme activity. Additionally stating, these morphological changes were not observed under the conditions devoid of the drugs.

[5] = system: human promyelocytic leukemia HL-60 cells; test: Induced differentiation of human promyelocytic leukemia HL-60 cells; conditions: six day incubation; optimal dose: C00021 1 μg/ml, drawing 22 4 μg/ml
Experimental: By employing soft-agar medium, incubation of human promyelocytic leukemia HL-60 cells was conducted in the presence of a drug at its optimal concentration. It was observed that the leukemia HL-60 cells were gradually changing into mature myeloid cells or phagocytic cells as the induced differentiation proceeded. After six day incubation, number of these cells was counted, and the respective ratios (%) relative to the total number of these cells were calculated, as shown in Table 3. Additionally stating, these changes were not observed under the conditions devoid of the drugs.

Tetrahymena pyriformis W = test: Antiprotozoal activity, broth dilution method (MIC); conditions: 28° C., 44-48 hours, read-out: MIC against Tetrahymena pyriformis W
Experimental: Referring to the antiprotozoal activity given in Table 4, the microbial growth inhibiting activity (MIC) of each compound of this invention was assayed by the broth dilution method by incubating Tetrahymena pyriformis W strain as the test organism at 28° C. for 44-48 hours, using a test culture medium comprising 20 g of Tryptose peptine (Difco), 1 g of yeast extract, 2 g of glucose. 1,000 ml of distilled water and 10 ml of 1M phosphate buffer (pH 7.0).

[6] = 1% glucose-bouillon agar medium

Compound	MIC (Gibberella fujikuroi; [6])	MIC (Leptosphaeria salvinii; [6])	MIC [1, 6]	MIC (Cochliobolus miyabeanus)	MIC (Alternaria solani)	MIC (Pyricularia oryzae)	further results
CCCCCCCCCCCCOCC(COP(=O)([O-])OCC[N+](C)(C)C)OC (stereo not drawn) [Compound (A) R = C12 H25, reference compound]	> 100 µg/mL	25 µg/mL (≈ 56.9 µM)	12.5 µg/mL (≈ 28.4 µM)	> 100 µg/mL	50 µg/mL (≈ 114 µM)	25 µg/mL (≈ 56.9 µM)	MIC (Botrytis cinerea; [6]): 50 µg/mL (≈ 114 µM)
CCCCCCCCCCCCCOCC(COP(=O)([O-])OCC[N+](C)(C)C)OC (stereo not drawn) [Compound (A) R = C13 H27]	> 100 µg/mL	6.25 µg/mL (≈ 13.8 µM)	6.25 µg/mL (≈ 13.8 µM)	> 100 µg/mL	50 µg/mL (≈ 110 µM)	12.5 µg/mL (≈ 27.6 µM)	MIC (Botrytis cinerea): 12.5 µg/mL (≈ 27.6 µM)
CCCCCCCCCCCCCCOCC(COP(=O)([O-])OCC[N+](C)(C)C)OC (stereo not drawn) [Compound (A) R = C14 H29]	25 µg/mL (≈ 53.5 µM)		25 µg/mL (≈ 53.5 µM)	12.5 µg/mL (≈ 26.7 µM)	100 µg/mL (≈ 214 µM)	3.12 µg/mL (≈ 6.67 µM)	MIC (Botrytis cinerea; [6]): 6.25 µg/mL (≈ 13.4 µM); MIC (Leptosphaeria salvinii): 3.12 µg/mL (≈ 6.67 µM)
CCCCCCCCCCCCCCCCCCOCC(COP(=O)([O-])OCC[N+](C)(C)C)OC (stereo not drawn) [Compound (A) R = C18 H37, reference compound]	> 100 µg/mL	12.5 µg/mL (≈ 23.9 µM)	> 100 µg/mL	> 100 µg/mL	> 100 µg/mL	6.25 µg/mL (≈ 11.9 µM)	MIC (Botrytis cinerea; [6]): 25 µg/mL (≈ 47.7 µM)
CCCCCCCCCCCCOCCCOP(=O)([O-])OCC[N+](C)(C)C [Compound (B) R = C12 H25, reference compound]	100 µg/mL (≈ 244 µM)	25 µg/mL (≈ 61 µM)		6.25 µg/mL (≈ 15.3 µM)	50 µg/mL (≈ 122 µM)	12.5 µg/mL (≈ 30.5 µM)	MIC (Botrytis cinerea; [6]): 25 µg/mL (≈ 61 µM); MIC [1]: 6.25 µg/mL (≈ 15.3 µM)
CCCCCCCCCCCCCOCCCOP(=O)([O-])OCC[N+](C)(C)C [Compound (B) R = C13 H27]	25 µg/mL (≈ 59 µM)	12.5 µg/mL (≈ 29.5 µM)	1.56 µg/mL (≈ 3.68 µM)	6.25 µg/mL (≈ 14.8 µM)	25 µg/mL (≈ 59 µM)	6.25 µg/mL (≈ 14.8 µM)	MIC (Botrytis cinerea): 6.25 µg/mL (≈ 14.8 µM)
CCCCCCCCCCCCCCOCCCOP(=O)([O-])OCC[N+](C)(C)C [Compound (B) R = C14 H29]				12.5 µg/mL (≈ 28.6 µM)	50 µg/mL (≈ 114 µM)	6.25 µg/mL (≈ 14.3 µM)	MIC (Gibberella fujikuroi): 12.5 µg/mL (≈ 28.6 µM); MIC (Botrytis cinerea): 6.25 µg/mL (≈ 14.3 µM); MIC (Leptosphaeria salvinii): 6.25 µg/mL (≈ 14.3 µM); MIC [1]: 6.25 µg/mL (≈ 14.3 µM)
CCCCCCCCCCCCCCCCCCOCCCOP(=O)([O-])OCC[N+](C)(C)C [Compound (B) R = C18 H37, reference compound]	> 100 µg/mL	50 µg/mL (≈ 101 µM)	> 100 µg/mL	> 100 µg/mL	> 100 µg/mL	12.5 µg/mL (≈ 25.3 µM)	MIC (Botrytis cinerea; [6]): 25 µg/mL (≈ 50.6 µM)
CCCCCCCCCCCCOCC(COP(=O)([O-])OCC[N+](C)(C)C)OC (stereo not drawn) [R = C12 H25, A = drawing 32, reference compound]							MIC [2]: 25 µg/mL (≈ 56.9 µM); MIC [3]: 6.25 µg/mL (≈ 14.2 µM)
CCCCCCCCCCCCCOCC(COP(=O)([O-])OCC[N+](C)(C)C)OC (stereo not drawn) [R = C13 H27, A = drawing 33]							MIC [2]: 6.25 µg/mL (≈ 13.8 µM); MIC [3]: 3.12 µg/mL (≈ 6.88 µM)
CCCCCCCCCCCCCOCC(COP(=O)([O-])OCC[n+]1ccccc1)OC (stereo not drawn) [R = C13 H27, A = drawing 34]							MIC [2]: 12.5 µg/mL (≈ 26.4 µM); MIC [3]: 3.12 µg/mL (≈ 6.59 µM)
CCCCCCCCCCCCCCOCC(COP(=O)([O-])OCC[N+](C)(C)C)OC (stereo not drawn) [R = C14 H29, A = drawing 35]							MIC [2]: 3.12 µg/mL (≈ 6.67 µM); MIC [3]: 1.56 µg/mL (≈ 3.34 µM)
CCCCCCCCCCCCCCOCC(COP(=O)([O-])OCC[n+]1ccccc1)OC (stereo not drawn) [R = C14 H29, A = drawing 36]							MIC [2]: 3.12 µg/mL (≈ 6.4 µM); MIC [3]: 1.56 µg/mL (≈ 3.2 µM)
CCCCCCCCCCCCCCCCCCOCC(COP(=O)([O-])OCC[N+](C)(C)C)OC (stereo not drawn) [drawing 19, reference compound]							Phagocytic cells [4]: 13.4%; Morphological change [4]: 34.7%; Lysozyme activity [4]: 31.1 units/mg protein
CCCCCCCCCCCCCCOCC(COP(=O)([O-])OCC[N+](C)(C)C)OC (stereo not drawn) [drawing 20]							Phagocytic cells [4]: 25.9%; Morphological change [4]: 53.4%; Lysozyme activity [4]: 80.1 units/mg protein
CCCCCCCCCCCCCCCCCCOCC(COP(=O)([O-])OCC[N+](C)(C)C)OC (stereo not drawn) [drawing 21, reference compound]							Mature myeloid cells [5]: 43.0%; NBT (nitro blue tetrazolium) reduction [5]: 47.8%; Phagocytic cells [5]: 39.8%
CCCCCCCCCCCCCCOCC(COP(=O)([O-])OCC[N+](C)(C)C)OC (stereo not drawn) [drawing 22]							Mature myeloid cells [5]: 91.3%; NBT (nitro blue tetrazolium) reduction [5]: 87.0%; Phagocytic cells [5]: 68.2%
CCCCCCCCCCCCOCC(COP(=O)([O-])OCC[N+](C)(C)C)OC (stereo not drawn) [drawing 23 R = C12 H25]							MIC (Tetrahymena pyriformis W): 0.4 µg/mL (≈ 0.91 µM)
CCCCCCCCCCCCCCOCC(COP(=O)([O-])OCC[N+](C)(C)C)OC (stereo not drawn) [drawing 23 R = C14 H29]							MIC (Tetrahymena pyriformis W): 0.2 µg/mL (≈ 0.428 µM)
CCCCCCCCCCCCCCCCCCOCC(COP(=O)([O-])OCC[N+](C)(C)C)OC (stereo not drawn) [drawing 23 R = C18 H37]							MIC (Tetrahymena pyriformis W): 1 µg/mL (≈ 1.91 µM)
